Among the test systems are HCT-15 colon; OVCAR-5 ovarian; U251 CNS; BT-549 breast; NCI/ADR-RES ovarian; LOX IMVI melanoma; ACHN renal; SK-MEL-5 melanoma; SK-OV-3 ovarian; SW-620 colon; TK-10 renal; SR leukemia; SK-MEL-28 melanoma.
Common to all, as to experiment: inhibition of tumour cell growth, NCI panel, 48 h

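Compound exposure: 48 hours, 5 concentrations, 96-well plates. TGI is the concentration that stops growth completely.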

TGI data for eleven compounds are collected here from PubChem BioAssay (NCI).

On to `[N-]=[N+]=NC1=C(N=[N+]=[N-])c2cccc3cccc(c23)C1=O`, for which the TGI in the assay with HCT-15 colon, in the assay with OVCAR-5 ovarian, in the assay on U251 CNS, in the assay with BT-549 breast, in the assay on NCI/ADR-RES ovarian and in the assay on LOX IMVI melanoma was above 100 µM throughout. Moreover, the TGI in the assay with ACHN renal, in the assay on SK-MEL-5 melanoma, in the assay with SK-OV-3 ovarian, in the assay on SW-620 colon, with TK-10 renal and in the assay with SR leukemia was above 100 µM in each case.

Turning to `NC1=NC(=O)[C@H](CSCc2ccccc2)N1C(=O)OCc1ccccc1`, the TGI in the assay with HCT-15 colon, in the assay with OVCAR-5 ovarian, with U251 CNS, in the assay on BT-549 breast, in the assay with NCI/ADR-RES ovarian and with LOX IMVI melanoma was above 100 µM each time. Further, the TGI with ACHN renal, with SK-MEL-5 melanoma, with SW-620 colon, in the assay with TK-10 renal and with SR leukemia was above 100 µM in each case.

`CN(Cc1cnc2nc(N)nc(N)c2n1)c1ccc(C(=O)NC2CCCCC2)cc1`: the TGI with HCT-15 colon was above 100 µM; with OVCAR-5 ovarian it was above 100 µM; with U251 CNS it was 32.5 µM; in the assay with BT-549 breast it was above 100 µM; in the assay with NCI/ADR-RES ovarian, above 100 µM; in the assay on LOX IMVI melanoma it was above 100 µM. The TGI was 47.8 µM in the assay on ACHN renal; 38.1 µM in the assay with SK-MEL-5 melanoma; above 100 µM in the assay with SK-OV-3 ovarian; above 100 µM in the assay with SW-620 colon; above 100 µM in the assay on TK-10 renal; above 100 µM with SR leukemia.

For the compound `N#Cc1c(-c2ccccc2)cc(Nc2ccc(F)cc2)n2c1nc1ccccc12`, the TGI in the assay with HCT-15 colon was above 30.4 µM; with OVCAR-5 ovarian, above 29.2 µM; with U251 CNS, 8.11 µM; in the assay with BT-549 breast, above 25.2 µM; with SK-MEL-28 melanoma, above 100 µM; with NCI/ADR-RES ovarian it was 13 µM. The TGI was above 30.4 µM in the assay on LOX IMVI melanoma; 10.6 µM with ACHN renal; 2.73 µM in the assay on SK-MEL-5 melanoma; 8.71 µM in the assay with SK-OV-3 ovarian; above 100 µM with SW-620 colon; above 54 µM in the assay with TK-10 renal. The same compound gave a TGI in the assay with SR leukemia above 100 µM.

Consider `c1cc(-c2ccc(Oc3ccc(-c4ccncc4)cc3)cc2)ccn1`, for which the TGI was 96.9 µM in the assay with HCT-15 colon; above 100 µM in the assay on OVCAR-5 ovarian; above 48.8 µM in the assay on U251 CNS; above 59.7 µM in the assay on BT-549 breast; above 95.1 µM in the assay on SK-MEL-28 melanoma; above 90.9 µM in the assay on NCI/ADR-RES ovarian. Moreover, the TGI with LOX IMVI melanoma is above 100 µM; with ACHN renal, above 100 µM; in the assay on SK-MEL-5 melanoma, 5.52 µM; in the assay on SK-OV-3 ovarian, above 100 µM; with SW-620 colon it was above 100 µM; in the assay with TK-10 renal, above 66.1 µM. The same compound came in with a TGI in the assay on SR leukemia of 9.97 µM.

In the case of `Cc1ccc2c(c1)C(=O)c1ccc(C)nc1C2=O`, the TGI is 39 µM with HCT-15 colon; above 100 µM in the assay with OVCAR-5 ovarian; above 100 µM with U251 CNS; 92.8 µM in the assay on BT-549 breast; above 100 µM in the assay on SK-MEL-28 melanoma; 67.3 µM with NCI/ADR-RES ovarian. For the same compound, the TGI with LOX IMVI melanoma is 75.6 µM; in the assay on ACHN renal, above 100 µM; with SK-MEL-5 melanoma, 26.7 µM; in the assay with SK-OV-3 ovarian it was above 100 µM; in the assay on SW-620 colon, above 100 µM; in the assay with TK-10 renal it was above 100 µM. The compound further returned a TGI in the assay on SR leukemia above 100 µM.

For `C=CCSC1=N/C(=C\c2ccco2)C(=O)N1CC=C`, the TGI in the assay with HCT-15 colon, in the assay with OVCAR-5 ovarian, in the assay on U251 CNS, in the assay with BT-549 breast, in the assay with SK-MEL-28 melanoma and with NCI/ADR-RES ovarian was above 100 µM throughout. Also, the TGI in the assay on LOX IMVI melanoma, in the assay on ACHN renal, with SK-MEL-5 melanoma, with SK-OV-3 ovarian, with SW-620 colon and in the assay with TK-10 renal was above 100 µM throughout. In addition, the TGI in the assay on SR leukemia was above 100 µM.

Consider `COC(=O)C1(Cc2ccccc2C)Cc2ccc(C)cc2C1=O` (configuration not stated), for which the TGI was above 100 µM with HCT-15 colon; above 100 µM with OVCAR-5 ovarian; above 100 µM in the assay on U251 CNS; above 100 µM in the assay on BT-549 breast; above 100 µM in the assay on SK-MEL-28 melanoma; 65.6 µM in the assay on NCI/ADR-RES ovarian. Also, the TGI in the assay on LOX IMVI melanoma was 45.9 µM; with ACHN renal, above 100 µM; in the assay with SK-MEL-5 melanoma it was 32.1 µM; in the assay on SK-OV-3 ovarian, above 100 µM; in the assay on SW-620 colon, above 100 µM; with TK-10 renal, 85.9 µM. The TGI with SR leukemia is 33.1 µM.

`COC(=O)c1c(OC(C)=O)ccc2c1c1c(n2Cc2ccccc2)C(=O)c2ccccc2C1=O`: the TGI in the assay on HCT-15 colon was 41.9 µM; in the assay on OVCAR-5 ovarian, 41.3 µM; in the assay on U251 CNS it was 42.4 µM; with BT-549 breast, 48.5 µM; in the assay with SK-MEL-28 melanoma, 41.2 µM; with NCI/ADR-RES ovarian, 61.6 µM. Besides, the TGI in the assay on ACHN renal is above 100 µM; in the assay with SK-MEL-5 melanoma, 28.1 µM; in the assay with SK-OV-3 ovarian, 66.9 µM; in the assay on TK-10 renal it was 95.4 µM; with SR leukemia, 64.5 µM.

In the case of `O=C(O)c1ccccc1/C=C1\Cc2ccc3c(c2C1=O)CCCC3`, the TGI in the assay with HCT-15 colon, in the assay with OVCAR-5 ovarian, in the assay with U251 CNS, in the assay on BT-549 breast, in the assay with SK-MEL-28 melanoma and with NCI/ADR-RES ovarian was above 100 µM each time. For the same compound, the TGI with LOX IMVI melanoma was above 100 µM; with ACHN renal, above 100 µM; in the assay with SK-MEL-5 melanoma it was 37 µM; in the assay on SK-OV-3 ovarian, above 100 µM; with SW-620 colon it was above 100 µM; in the assay on TK-10 renal, above 100 µM. For the same compound, the TGI with SR leukemia was found to be 61 µM.

Regarding `O=C1c2ccccc2-c2ccc(N(Cc3ccc(Br)cc3)Cc3ccc(Br)cc3)cc21`, the TGI in the assay on HCT-15 colon, with OVCAR-5 ovarian, in the assay with U251 CNS, with BT-549 breast, with SK-MEL-28 melanoma and in the assay on NCI/ADR-RES ovarian was above 100 µM throughout. Moreover, the TGI in the assay on LOX IMVI melanoma, in the assay with ACHN renal, in the assay with SK-MEL-5 melanoma, with SK-OV-3 ovarian, in the assay on SW-620 colon and in the assay with TK-10 renal was above 100 µM throughout. Further, the TGI with SR leukemia is above 100 µM.
